Test results published in patent US6599892B2, “7-alkylidene cephalosporanic acid derivatives and methods of using the same” (Research Corporation Technologies, Inc., priority 1994, dated 2003).
Counter-ions that a name gives are not always drawn.

Key:
[1] = molecular target: E. coli. W3310 β-lactamase (TEM2) (Escherichia coli, UniProt P62593, Q37K); conditions: read-out: IC50 (nM) E. Coli WC3310; 10 minute incubation of enzyme and inhibitor; nitrocefin substrate
[2] = molecular target: E. cloacae SC 12368 β-lactamase (Enterobacter cloacae, UniProt P05364); assay type: biochemical; conditions: 10 minute incubation of enzyme and inhibitor; nitrocefin substrate; read-out: IC50 (nM) E. cloacea SC12368
Procedure: (§1) The IC50 value of each compound was determined as follows. Following a 10 minute incubation of a dilute solution of enzyme (2.56 nm) and inhibitor (<0.64 mM), a […] of this incubation mixture was then further diluted into 1 mL nitrocefin solution, and the rate of hydrolysis was measured during a 1 minute period by monitoring the absorbance of nitrocefin as a function of time.

[3] = molecular target: Class C β-lactamase of Enterobacter cloacae P99 (Enterobacter cloacae, UniProt P05364); assay type: biochemical; conditions: for IC50: 10 minute incubation of enzyme and inhibitor, nitrocefin substrate, read-out: IC50 (nM) E. cloacea P99
Procedure: as §1

Molecule | IC50 [1] [nM] | IC50 [2] [nM] | IC50 [3] [nM] | fold increase in activity of sulfone over its sulfide 6e [3] [fold] | fold increase in activity over tazobactam [3] [fold]
CC(=O)OCC1=C(C(=O)O)N2C(=O)C(=C(Br)Br)C2SC1 (stereo not shown) [Compound 6a, Sodium salt of 7-[dibromomethylene] cephalosporanic acid] | > 20000 | > 20000 | > 20000 | – | –
CC(=O)OCC1=C(C(=O)[O-])N2C(=O)/C(=C/c3ccccn3)C2S(=O)(=O)C1.[Na+] (stereo not shown) [Compound 7e, Sodium salt of 7-[(Z)-(2′-pyridyl)methylene] cephalosporanic acid sulfone] | 800 | 25 | 25 | 1300 | 20
CC(=O)OCC1=C(C(=O)O)N2C(=O)C(=C(Cl)Cl)C2S(=O)(=O)C1 (stereo not shown) [Compound 7b, Sodium salt of 7-[dichloromethylene] cephalosporanic acid sulfone] | 8300 | > 20000 | > 20000 | – | –
CC(=O)/C=C1/C(=O)N2C(C(=O)O)=C(COC(C)=O)CSC12 (stereo not shown) [Compound 6h, Sodium salt of 7-[(Z)-acetylmethylene] cephlosporanic acid] | > 20000 | > 20000 | > 20000 | – | –
CC(=O)OCC1=C(C(=O)O)N2C(=O)/C(=C/C(=O)OC(C)(C)C)C2SC1 (stereo not shown) [Compound 6g, Sodium salt of 7-[(Z)-t-butoxycarbonylmethylene] cephlosporanic acid] | > 20000 | > 20000 | 2500 | – | –
CC(=O)OCC1=C(C(=O)O)N2C(=O)/C(=C\Br)C2SC1 (stereo not shown) [Compound 6l, Sodium salt of 7-[(E)-bromomethylene] cephalosporanic acid] | > 20000 | > 20000 | > 20000 | – | –
Sodium salt of 7-[(Z)-t-butoxymethylene] cephalosporanic acid sulfone [Compound 7g] | – | 5900 | 7800 | – | –
CC(=O)OCC1=C(C(=O)O)N2C(=O)/C(=C/C(C)(C)C)C2SC1 (stereo not shown) [Compound 6m, Sodium salt of 7-[(Z)-t-butylmethylene] cephalosporanic acid] | > 20000 | > 20000 | > 20000 | – | –
CC(=O)OCC1=C(C(=O)O)N2C(=O)C(=C(Br)Br)C2S(=O)(=O)C1 (stereo not shown) [Compound 7a, Sodium salt of 7-[dibromomethylene] cephalosporanic acid sulfone] | > 20000 | > 20000 | > 20000 | – | –
CC(=O)OCC1=C(C(=O)O)N2C(=O)C(=C(Cl)Cl)C2SC1 (stereo not shown) [Compound 6b, Sodium salt of 7-[dichloromethylene] cephalosporanic acid] | > 20000 | > 20000 | > 20000 | – | –
CC(=O)OCC1=C(C(=O)O)N2C(=O)/C(=C/C(C)(C)C)C2S(=O)(=O)C1 (stereo not shown) [Compound 7m, Sodium salt of 7-[(Z)-t-butylmethylene] cephalosporanic acid sulfone] | > 20000 | > 20000 | > 20000 | – | –
CON(C)C(=O)/C=C1/C(=O)N2C(C(=O)O)=C(COC(C)=O)CSC12 (stereo not shown) [Compound 6k, Sodium of salt of 7-[(Z)-N-methoxy-N-methylamino-carbonylmethylene] cephlosporanic acid] | > 20000 | > 20000 | > 20000 | – | –
CC(=O)OCC1=C(C(=O)O)N2C(=O)/C(=C\Br)C2S(=O)(=O)C1 (stereo not shown) [Compound 7l, Sodium salt of 7-(E)-[bromomethylene] cephalosporanic acid sulfone] | > 20000 | > 20000 | > 20000 | – | –
CC(=O)OCC1=C(C(=O)O)N2C(=O)/C(=C/c3ccccn3)C2SC1 (stereo not shown) [Compound 6e, Sodium salt of ^7-[(Z)-(2′-pyridyl)methylene] cephalosporanic acid] | > 20000 | > 20000 | > 20000 | – | –
CC(=O)OCC1=C(C(=O)O)N2C(=O)/C(=C\c3ccccc3)C2S(=O)(=O)C1 (stereo not shown) [Compound 7c, Sodium salt of 7-[(E)-benzylidene] cephalosporanic acid sulfone] | > 20000 | > 20000 | > 20000 | – | –
CC(=O)OCC1=C(C(=O)O)N2C(=O)/C(=C/CO)C2S(=O)(=O)C1 (stereo not shown) [Compound 7j, Sodium salt of 7-[(Z)-hydroxymethylmethylene] cephalosporanic acid sulfone] | > 20000 | > 20000 | > 20000 | – | –
CC(=O)OCC1=C(C(=O)O)N2C(=O)/C(=C/c3ccccc3)C2S(=O)(=O)C1 (stereo not shown) [Compound 7d, Sodium salt of 7-[(Z)-benzylidene] cephalosporanic acid sulfone] | > 20000 | 6800 | 6250 | – | –
